Laboratory results as given in ChEMBL document CHEMBL4613321, “Discovery of Small-Molecule Stabilizers of 14-3-3 Protein-Protein Interactions via Dynamic Combinatorial Chemistry” (ACS Med Chem Lett, 2020).
Active and inactive are the calls of the source. No cut-off for these calls is given here.

Key:
[1] = biological target: T1, 14-3-3 protein zeta/delta (Homo sapiens) (UniProt P63104); assay: Binding affinity to 14-3-3 zeta (unknown origin) assessed as response unit at 3.1 to 50 uM by SPR analysis
T1 sequence (whole entry): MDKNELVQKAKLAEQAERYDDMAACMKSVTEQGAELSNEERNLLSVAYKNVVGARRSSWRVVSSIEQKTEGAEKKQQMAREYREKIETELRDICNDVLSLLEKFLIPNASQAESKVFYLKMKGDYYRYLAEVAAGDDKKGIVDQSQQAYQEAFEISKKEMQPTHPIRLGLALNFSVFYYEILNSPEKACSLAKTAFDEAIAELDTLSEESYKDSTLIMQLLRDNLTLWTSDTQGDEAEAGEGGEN

[2] = biological target: T2, 14-3-3 protein zeta/delta (Homo sapiens, UniProt P63104); assay: Binding affinity to 14-3-3 zeta (unknown origin) by SPR analysis
T2 sequence (P63104 whole entry): T1 sequence (whole entry)

[3] = biological target: T1, 14-3-3 protein zeta/delta (Homo sapiens); assay: Binding affinity to 14-3-3 zeta (unknown origin) assessed as dissociation rate constant by SPR analysis
[4] = biological target: T1, 14-3-3 protein zeta/delta (Homo sapiens); assay: Binding affinity to 14-3-3 zeta (unknown origin) assessed as half life for dissociation by SPR analysis
[5] = biological target: T1, 14-3-3 protein zeta/delta (Homo sapiens); assay: Competitive binding affinity to 14-3-3 zeta (unknown origin) at 25 uM in presence of 1 uM synaptopodin by SPR analysis
[6] = biological target: T1, 14-3-3 protein zeta/delta (Homo sapiens); assay: Binding affinity to 14-3-3 zeta (unknown origin) assessed as association rate constant by SPR analysis
[7] = biological target: T1, 14-3-3 protein zeta/delta (Homo sapiens); assay: Competitive binding affinity to 14-3-3 zeta (unknown origin) at 1000 uM in presence of 25 uM synaptopodin by SPR analysis
[8] = biological target: T1, 14-3-3 protein zeta/delta (Homo sapiens); assay: Competitive binding affinity to 14-3-3 zeta (unknown origin) at 1000 uM in presence of 1 uM synaptopodin by SPR analysis
[9] = biological target: T1, 14-3-3 protein zeta/delta (Homo sapiens); assay: Competitive binding affinity to 14-3-3 zeta (unknown origin) at 200 uM in presence of 1 uM synaptopodin by SPR analysis
[10] = biological target: T2, 14-3-3 protein zeta/delta; assay: Binding affinity to 14-3-3 zeta (unknown origin) assessed as 14-3-3 zeta-synaptopodin interaction by fluorescence polarization assay

SMILES | RUmax [1] | Kd [2] | Kdiss [3] | T1/2 [4] | Activity [5] | Ka [6] | Activity [7] | Activity [8] | Activity [9] | EC50 [10]
O=C(N/N=C/c1cccc(Br)c1)c1cc2c(s1)CCCC2 | 4.6 | 16 µM | 4.1 ×10⁻² /s | 17 s | Active | 2.6 ×10³ /M/s | – | – | – | –
O=C(N/N=C/c1cccc(Cl)c1Cl)c1cc2c(s1)CCCC2 | 4.5 | 15 µM | 8.7 ×10⁻³ /s | 80 s | Active | 5.8 ×10² /M/s | – | – | – | –
O=C(N/N=C/c1cccc(Cl)c1Cl)c1ccccc1P(=O)(O)O | – | 1010 µM | – | – | – | – | Active | Active | Active | 120 µM
